Data published in US20050118109A1, “Method for treating lung diseases associated with ventilation-perfusion mismatches” (priority 2003, published 2005).

Experiments:
[1] = system: pulmonary vascular system; conditions: in vivo; cited from earlier work
[2] = system: arthritis in an experimental model; conditions: treatment with VIP; cited from earlier work
Type I binding sites = biological target: T1, Type I binding sites (Homo sapiens, UniProt P41586); conditions: cited from earlier work
T1 sequence (P41586 21-468): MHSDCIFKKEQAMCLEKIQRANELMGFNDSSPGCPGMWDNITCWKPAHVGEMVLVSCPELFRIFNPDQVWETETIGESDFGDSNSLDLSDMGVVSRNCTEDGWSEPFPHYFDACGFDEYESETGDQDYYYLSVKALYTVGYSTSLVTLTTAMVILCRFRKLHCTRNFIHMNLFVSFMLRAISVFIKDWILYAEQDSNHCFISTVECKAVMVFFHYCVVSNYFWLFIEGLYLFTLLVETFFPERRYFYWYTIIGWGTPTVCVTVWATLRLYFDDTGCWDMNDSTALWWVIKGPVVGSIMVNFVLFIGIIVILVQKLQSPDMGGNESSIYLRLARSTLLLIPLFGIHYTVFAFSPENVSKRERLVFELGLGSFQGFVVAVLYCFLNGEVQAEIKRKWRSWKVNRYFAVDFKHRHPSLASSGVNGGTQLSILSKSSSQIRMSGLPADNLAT

[3] = system: patient with chronic bronchitis with V/Q-mismatch; assay: Inhalation of VIP by patient No. 4: chronic bronchitis with V/Q-mismatch, no bronchial obstruction; format: in vivo, human
[4] = patient No. 4, after 1 and 2 days of inhalation

Substance: His-Ser-Asp-Ala-Val-Phe-Thr-Asp-Asn-Tyr-Thr-Arg-Leu-Arg-Lys-Gln-Met-Ala-Val-Lys-Lys-Tyr-Leu-Asn-Ser-Ile-Leu-Asn [VIP]
- resistance in the pulmonary vascular system [1]: decrease the resistance
- incidence and severity of arthritis [2]: reduce significantly
- joint swelling and destruction of cartilage and bone [2]: completely abrogating
- affinity for type I binding sites (Type I binding sites): much lower affinity
- pulmonary gas exchange in lung function analysis [3, 4]: completely normal pulmonary gas exchange
- severe decrease of paO2 caused by V/Q-mismatch [3, 4]: significantly ameliorated
- V/Q-mismatch ([3]; patient No. 4, after inhalation of VIP): totally removed
